Patent US20220401390A1, “TREATMENTS OF DIABETIC MACULAR EDEMA AND IMPAIRED VISUAL ACUITY” (KALVISTA PHARMACEUTICALS LIMITED, priority 2019, published 2022)
“Also recorded” adds a separate entry of the source.

Assays:
Assay type in all cases: in vivo, human
[1] = test system: subjects with center involved diabetic macular edema; test: Study 1: pharmacodynamic effect (visual acuity, retinal thickness); conditions: for Mean improvement in visual acuity compared with baseline: single injection
Procedure: (§1) The secondary objectives were: • To evaluate the plasma profile of the compound of Formula A following intravitreal injection in adult male and female subjects with central involved diabetic macular edema. • To evaluate the pharmacodynamic effect of intravitreal injection of the compound of Formula A in adult male and female subjects with central involved diabetic macular edema.
(§2) Following the signing of informed consent, subjects attended the clinic where screening assessments were recorded (Clinic Visit 1). When deemed eligible, subjects attended the clinic where baseline measurements were recorded (recorded as Day 0, Clinic Visit 2). Following confirmation of eligibility and the taking of baseline ophthalmic measurements, a single intravitreal injection of the compound of Formula A, was administered to the study eye as per Diabetic Retinopathy Clinical Research Network (DRCR.net) protocol.
(§3) Each subject returned on Day 1, 7, 14, 28 and 56 for safety and ophthalmic assessment. Pharmacokinetic assessment was also taken. In addition, the subject was contacted by the Study Site on Day 3 (+1-1 day) by telephone to inquire about the subject's visual wellbeing and to ask about any adverse events.
(§4) Single 100 μL intravitreal injection of: • 1 μg-10 μg/mL of the compound of Formula A • 3 μg-30 μg/mL of the compound of Formula A • […] of the compound of Formula A
(§5) • Best Corrected Visual Acuity as measured by ETDRS EVA • Intraocular pressure • Color vision • Multifocal Electroretinogram (mfERG) • Humphrey Visual Field 24-2 (HVF 24-2) • Treatment-Emergent Adverse Events (TEAEs) • Changes on ophthalmic examination • Clinical laboratory test results • Vital signs • ECG findings

[2] = Study 1: plasma profile following intravitreal injection
Description: as §1, §3, §4

[3] = test system: subjects with center involved diabetic macular edema; test: Study 1: safety and tolerability of single ascending intravitreal doses
Description: Study—an Open Label, Single Ascending Dose Study to Investigate the Safety and Tolerability of the Compound of Formula A Administered by Intravitreal Injection in Subjects with Center Involved Diabetic Macular Edema and Reduced Vision
The primary objective of the trial was to evaluate the local and systemic safety and tolerability of single ascending doses administered via intravitreal injection of the compound of Formula A in adult male and female subjects with central involved diabetic macular edema.
as §2, §3
Once the highest safe and tolerated (or practical) dose had been established, the study proceeded to Part 2 in which 5 additional subjects were treated with the established highest safe and tolerated (or practical) dose according to the same protocol with the same procedures performed as described for subjects enrolled into Part 1.
as §4, §5

[4] = test system: subjects with ciDME who have had prior anti-VEGF treatment; test: Study 2: local and systemic safety and tolerability
Description: To evaluate the local and systemic safety and tolerability of monthly dosing of the injections of the compound of Formula A in subjects with ciDME who had had prior anti-VEGF treatment.
This study was a randomized, sham-controlled, double-masked, 3-arm study into efficacy, safety and tolerability of monthly intravitreal injections of the compound of Formula A as a monotherapy in adult subjects with ciDME. The subjects had all had prior anti-VEGF treatment.
The 129 eligible subjects were randomized approximately 1:1:1 into three arms: • 1. Arm 1, N=44: • Received injections of 3 μg/eye (100 μL injection volume at a concentration of 30 μg/mL) of the compound of formula A; • 2. Arm 2, N=41: • Received injections of 6 μg/eye (100 μL injection volume at a concentration of 60 μg/mL) of the compound of formula A; and • 3. Arm 3, N=44: • Received a sham procedure; during a 12-week, double-masked treatment period (a total of 4 doses given at approximately monthly intervals).
Approximately twenty-four (24) hours after each study drug administration or sham procedure on Day 1 and Weeks 4, 8, and 12, subjects were contacted by telephone to evaluate any reported AEs and changes in concomitant medications. In the event of any reported ocular or systemic AEs that were considered by the Investigator to be a possible cause for concern, the subjects returned to the clinic for assessment as soon as possible. • 3. Follow up Phase:
Safety variables of interest in this study are: • AEs; • Ophthalmic and physical findings; • Laboratory test results (clinical chemistry, hematology, and urinalysis); • Vital signs (SBP, DBP, PR, and respiratory rate).

[5] = test system: subjects with center involved diabetic macular edema; test: Study 1: pharmacodynamic effect (visual acuity, retinal thickness); conditions: Day 84, 10 μg dose
[6] = whole study population, no control group
[7] = of the 14 subjects, single intravitreal injection, all dose groups

CCOc1ccc(C[C@@H](NC(=O)c2ccccc2)C(=O)N[C@@H](Cc2ccccc2)C(=O)NCc2ccc(CN)cc2)cc1 [compound of Formula A, N—[(R)-1-[(S)-1-(4-Aminomethyl-benzylcarbamoyl)-2-phenyl-ethylcarbamoyl]-2-(4-ethoxy-phenyl)-ethyl]-benzamide]
Mean improvement in visual acuity compared with baseline ([1]; Day 7, average across all dose groups): 0.7 letters
Mean improvement in visual acuity compared with baseline ([1]; Day 14, average across all dose groups): 1.0 letters
Mean improvement in visual acuity compared with baseline ([1]; Day 28, average across all dose groups): 1.9 letters
Mean improvement in visual acuity compared with baseline ([1]; Day 56, average across all dose groups): 2.8 letters
Mean improvement in visual acuity ([1]; Day 84, 1 μg dose): 3.3 letters
Mean improvement in visual acuity ([1]; Day 84, 3 μg dose): 2.0 letters
Mean improvement in visual acuity compared with baseline ([1]; Day 84, average across all dose groups): 4.1 letters
Mean retinal thickness post-injection (in words) [1, 6]: trends of improvement; also recorded: reduction
Mean visual acuity post-injection (in words) [1, 6]: trends of improvement; also recorded: small improvement
Time post dosing up to which plasma concentrations were quantifiable ([2]; 3 μg/eye dose): up to 24 hours
Time post dosing up to which plasma concentrations were quantifiable ([2]; 10 μg/eye): up to 24 hours
Time post injection up to which plasma concentrations were quantifiable ([2]; intravitreal injection of 1 μg/eye): up to 4 hours
Adverse events leading to withdrawal from the study ([3]; 14 subjects, all dose groups): nor did any event lead to withdrawal from the study
Deaths or other serious adverse events ([3]; 14 subjects, all dose groups): no deaths or other serious adverse events
Severe events ([3]; 14 subjects, all dose groups): 1 patient
Study drug-related events ([3]; 14 subjects, all dose groups): 2 patients
Subjects who reported at least one adverse event (%) [3, 7]: 71%
Subjects who reported at least one adverse event (number) [3, 7]: 10 subjects
Adverse systemic effect ([3]; review of adverse events, laboratory results, ECG and physical examinations): no evidence of any adverse effect associated with systemic exposure
Tolerability of intravitreal injection ([3]; single intravitreal injection, 1, 3 or 10 μg): well tolerated
AEs that led to discontinuation ([4]; 6 μg arm): one retinal neovascularization
Severity of reported adverse events (AEs) ([4]; majority of reported AEs, all arms): mild
Subjects in whom the treatment was safe and well-tolerated ([4]; monthly intravitreal injections, 3 μg or 6 μg): > 99%
Mean improvement in visual acuity [5]: 5.5 letters
